What was measured:
Format in all cases: cell-based
[1] = system: Human skin fibroblasts (HSF); assay: Cell proliferation assay (MTT) on HSF cells; details: 72 h, FIG. 6
From the text: (§1) Human skin fibroblasts (HSF) were purchased from the Shanghai Cell Bank of China Center for Type Culture Collection under the Chinese Academy of Sciences.
Polypeptide group: Peptide (26), peptide (33), peptide (39) and peptide (49). The test concentrations of all the above samples were 1 ppm, 10 ppm, 50 ppm, 100 ppm, 200 ppm, 500 ppm and 1000 ppm.
Blank control group: PBS.
Positive control group: 2% DMSO.
(§2) Cells in good exponential growth phase were taken. A 0.25% trypsin digestion solution was added so that digestion allowed the adherent cells to fall off, counting 1 to 4×10^5 cells/mL, which were prepared into a cell suspension.
The cell suspension was inoculated into a 96-well plate with 200 µL/well, and cultured in a constant-temperature CO2 incubator for 24 h. […]
20 μL of 5 mg/mL MTT was added to each well and the incubation was continued in the 5% CO2 incubator at 37° C. for 4 h. […] After shaking the plate on a plate shaker for 5 min, a microplate reader was used to determine the OD value of each well at a wavelength of 570 nm, and the cell viability was calculated.
The MTT assay is a method of detecting cell survival and growth. The measured OD values are directly proportional to cell viability. […]

[2] = system: Human keratinocytes (HaCaT); assay: Photoaging experiment (UV-irradiated HaCaT, MTT); details: 80 mJ/cm^2 UV, 24 h, compared with the UV group, FIG. 7
Description: (§3) Human keratinocytes (HaCaT) were purchased from the Kunming Cell Bank of China Center for Type Culture Collection under the Chinese Academy of Sciences.
Polypeptide group: Peptide (26), peptide (33), peptide (39) and peptide (49). The test concentrations of all the above samples were 1 ppm, 10 ppm, 50 ppm, 100 ppm, and 200 ppm.
as §2
The cell suspension was properly diluted and inoculated into a 96-well plate at 10,000 cells/well. When the cells reached approximately 80% confluence, a UV photoaging model was established. In the blank control group, 50 μL of PBS was added, and supplemented with the culture medium to 200 μL, while no UV irradiation was performed. For the UV group and the polypeptide groups, a proper amount of PBS was added to wash the culture repeatedly until colorless, followed by adding 50 μL of PBS and irradiating under an 80 mJ/cm^2 UV light. The distance between the light source and the culture bottle was 15 cm. After irradiation, the PBS was removed. In the UV group, a PBS solution and the culture medium were added to 200 μL; in the polypeptide groups, the culture medium and the samples diluted in a certain ratio were added to 200 μL. The blank control group, the UV group, and the polypeptide groups were further incubated in a 5% CO2 incubator at 37° C. for 24 h.
Then 22 μL of 5 mg/mL MTT was added to each well and the incubation was continued in the 5% CO2 incubator at 37° C. for 4 h. The original solution was removed and 150 µL/well of DMSO was added. After shaking the plate on a plate shaker for 5 min, a microplate reader was used to read the reference OD values at wavelengths of 490 nm and 630 nm.
Skin aging is affected by endogenous and exogenous factors, such as genetics, environmental exposure, UV irradiation, hormonal changes, etc. The accumulation of these factors, especially exposure to UV irradiation, leads to changes in structure, function and appearance of the skin. In this experiment, 80 mJ/cm^2 UV energy was selected for radiation to establish a skin photoaging model.

[3] = system: Human keratinocytes (HaCaT); assay: Cell scratch assay; details: 24 h, FIG. 8; for order of effects on promoting the proliferation and migration of HaCaT cells: 50-100 ppm
Description: as §3
Polypeptide group: Peptide (26), peptide (33), peptide (39) and peptide (49). The test concentrations of all the above samples were 50 ppm and 100 ppm.
Positive control group: 50 U/mL of EGF.
A bottle of HaCaT cells in good exponential growth phase was taken. A 0.25% trypsin digestion solution was added so that digestion allowed the adherent cells to fall off, counting 1 to 4×10^5 cells/mL, which were prepared into a cell suspension.
The cells were inoculated into a 24-well plate at a density of 150,000 cells/well, with 2 mL cell suspension per well. After the cells attached to the wall and grew to 100% confluence, the culture medium was replaced with a medium containing 0.5%-1% fetal bovine serum to maintain the cells for 24 h for synchronization. A sterilized pipette tip was used to scratch a wound, the detached cells were washed off with PBS, and the samples to be tested were added. The incubation was continued in the 5% CO2 incubator at 37° C., and the migration of cells was observed under an optical microscope after 24 h.
The scratch migration experiment of cells can reflect the proliferation and repair ability of cells. A scratch assay was performed on the basis of HaCaT cells growing all over the dish, and the migration of cells was observed under an optical microscope 24 h after administration of the samples to evaluate the effect of the test samples on cell proliferation and migration.

[4] = system: Human keratinocytes (HaCaT); assay: Determination of hyaluronic acid content; details: 10 ppm, 48 h, compared with blank control group, FIG. 9
Description: as §3
Polypeptide group: Peptide (26), peptide (33), peptide (39) and peptide (49). The test concentrations of all the above samples were 10 ppm.
A bottle of HaCaT cells in good exponential growth phase was taken. A 0.25% trypsin digestion solution was added so that digestion allowed the adherent cells to fall off, counting 1 to 4×10^6 cells/mL, which were prepared into a cell suspension.
The cells were inoculated into a 6-well plate at 10^5 cells/well, and grouped when the cells reached approximately 80% confluence. […]
After completion of the culture, cells were scraped off using a cell scraper, and 200 μL of RIPA lysis buffer was added to extract proteins. […] The total protein concentration was quantified to 1 mg/mL using the BCA method. […] The OD value of each well was measured in sequence at 570 nm using a microplate reader within 15 min.
Hyaluronic acid is one of the main matrix ingredients of the human skin epidermis and an important component of the skin barrier. […] This experiment measured the effect of the peptide of the present invention on the hyaluronic acid content to determine whether the peptide of the invention can increase the hyaluronic acid content and thus play a role in moisturizing and anti-aging repair.

[5] = system: Human skin fibroblasts (HSF); assay: Collagen content assay (collagen I ELISA, UV photoaging model); details: 100 ppm, UV-irradiated HSF, 48 h, FIG. 10
Description: as §1
Polypeptide group: Palmitoyl pentapeptide-4 (Palm-Lys-Thr-Thr-Lys-Ser-OH), peptide (26), peptide (32), peptide (33), peptide (39), and peptide (49), all at a test concentration of 100 ppm;
HSF cells in good exponential growth phase were taken. A 0.25% trypsin digestion solution was added so that digestion allowed the adherent cells to fall off, counting 1 to 4×10^6 cells/mL, which were prepared into a cell suspension.
The cell suspension was inoculated into a 6-well plate at 10^5 cells/well. A UV photoaging model was established when the cells reached approximately 80% confluence. In the blank control group, 200 μL of PBS was added, supplemented with the culture medium to 800 μL, while no UV irradiation was performed. For the UV group and the polypeptide groups, a proper amount of PBS was added to wash the culture repeatedly until colorless, followed by adding 200 μL of PBS and irradiating under an 80 mJ/cm^2 UV light. The distance between the light source and the culture bottle was 15 cm. After irradiation, the PBS was removed. In the UV group, a PBS solution and culture medium were added to 800 μL; in the polypeptide groups, the culture medium and the samples diluted in a certain ratio were added to 800 μL. The blank control group, the UV group, and the polypeptide groups were further incubated in a 5% CO2 incubator at 37° C. for 48 h.
After completion of the culture, the cells were scraped off using a cell scraper, mixed by pipetting, and the cell protein was extracted using RIPA and quantified to 1 mg/mL with BCA. The procedure was performed according to the operation instructions of collagen I ELISA. The OD value of each well was measured in sequence at 450 nm using a microplate reader within 15 min.
Collagen is the most abundant protein found in connective tissue, and provides plumpness and firmness to the skin. […] In this experiment, UV-irradiated cells were treated with test samples, and the content of collagen I in corresponding cells was detected to determine whether the peptide of the present invention can promote collagen synthesis.

| Compound | activity of photoaged HaCaT keratinocytes ([2]; range of 1-200 ppm) | order of effects on promoting the proliferation and migration of HaCaT cells [3] | collagen content (collagen I) compared with palmitoyl pentapeptide-4 [5] | also measured |
| --- | --- | --- | --- | --- |
| C[S+](C)[O-] [DMSO, dimethyl sulfoxide, reference compound] | – | – | – | HSF cell viability (positive control) ([1]; 2% DMSO, compared with blank control group): toxic effect on HSF cells |
| Ac-Lys-Arg-Tyr-Gly-Trp-NH2 (Ac-KRYGW-NH2) [peptide (49)] | improve the activity of HaCaT keratinocytes to different degrees | peptide (33)>peptide (26)>peptide (49)>peptide (39) | more significantly increase the collagen content | hyaluronic acid content [4]: more superior technical effects |
| Ac-Lys-Lys-Trp-Val-Thr-His-NH2 (Ac-KKWVTH-NH2) [peptide (39)] | – | peptide (33)>peptide (26)>peptide (49)>peptide (39) | more significantly increase the collagen content | HSF cell activity / proliferation of HSF fibroblasts ([1]; low concentration of 1-10 ppm): significantly increase cell activity and promote the proliferation of HSF fibroblasts; activity of photoaged HaCaT keratinocytes ([2]; at 1 ppm, 100 ppm and 200 ppm): improve cell activity |
| Ac-Lys-Pro-Leu-Trp-His-Val-NH2 (Ac-KPLWHV-NH2) [peptide (33)] | improve the activity of HaCaT keratinocytes to different degrees | peptide (33)>peptide (26)>peptide (49)>peptide (39) | more significantly increase the collagen content | – |
| Ac-Lys-Pro-Leu-Trp-His-Val-OH (Ac-KPLWHV-OH) [peptide (32)] | – | – | more significantly increase the collagen content | – |
| Ac-Tyr-Gly-Trp-Lys-Lys-Gln-NH2 (Ac-YGWKKQ-NH2) [peptide (26)] | improve the activity of HaCaT keratinocytes to different degrees | peptide (33)>peptide (26)>peptide (49)>peptide (39) | more significantly increase the collagen content | hyaluronic acid content [4]: more superior technical effects |
| EGF: Positive control group: 50 U/mL of EGF [reference compound] | – | – | – | cell proliferation and migration of HaCaT cells (positive control) ([3]; 50 U/mL, compared with blank control group): obvious cell proliferation and migration |

Source: patent US20260078144A1, “ACTIVE PEPTIDE, AND COMPOSITION AND USE THEREOF” (WINKEY TECHNOLOGY USA INC, priority 2023, published 2026)
